The test system of assay [1] is Pseudomonas aeruginosa. The assay can be described thus: Antimicrobial activity against non-mucoid Pseudomonas aeruginosa PAO1 after 24 hrs aerobic condition. Particulars: PAO1, 24 h.
Assay [2] concerns Staphylococcus aureus. The assay can be described thus: Antimicrobial activity against Staphylococcus aureus USA300 after 24 hrs aerobic condition. Particulars: USA300, 24 h.
The test system of assay [3] is Pseudomonas aeruginosa. The assay can be described thus: Antimicrobial activity against mucoid Pseudomonas aeruginosa FRD1 harboring mucA22 mutant after 24 hrs under anaerobic condition. The following applies: FRD1, 24 h.
The test system of assay [4] is Pseudomonas aeruginosa. The assay can be described thus: Antimicrobial activity against non-mucoid Pseudomonas aeruginosa PAO1 after 24 hrs anaerobic condition. The following applies: PAO1, 24 h.
In assay [5] the test system is Staphylococcus aureus. The assay can be described thus: Antimicrobial activity against Staphylococcus aureus USA300 after 24 hrs anaerobic condition. The following applies: USA300, 24 h.
Assay [6] concerns Pseudomonas aeruginosa. The assay can be described thus: Antimicrobial activity against mucoid Pseudomonas aeruginosa FRD1 harboring mucA22 mutant after 24 hrs under aerobic condition. The following applies: FRD1, 24 h.
Assay [7] relates to Pseudomonas aeruginosa. Particulars: FRD1, 64 ug/ml.
Description: Antimicrobial activity against mucoid Pseudomonas aeruginosa FRD1 harboring mucA22 mutant assessed as inhibition of bacterial cell growth at 64 ug/ml after 24 hrs under anaerobic condition
Assay [8] deals with Pseudomonas aeruginosa. Particulars: FRD1, 128 ug/ml.
Description: Antimicrobial activity against mucoid Pseudomonas aeruginosa FRD1 harboring mucA22 mutant assessed as inhibition of bacterial cell growth at 128 ug/ml after 24 hrs under anaerobic condition
Assay [9] concerns Pseudomonas aeruginosa. Particulars: FRD1, 256 ug/ml.
Description: Antimicrobial activity against mucoid Pseudomonas aeruginosa FRD1 harboring mucA22 mutant assessed as 2 log inhibition of bacterial cell growth at 256 ug/ml after 2 days under anaerobic condition
Assay [10] relates to Pseudomonas aeruginosa. The following applies: PAO1, 64 to 256 ug/ml.
Description: Antimicrobial activity against non-mucoid Pseudomonas aeruginosa PAO1 assessed as inhibition of bacterial cell growth at 64 to 256 ug/ml after 24 hrs under anaerobic condition
The subject of assay [11] is Staphylococcus aureus. Particulars: USA300, 512 ug/ml.
Description: Antimicrobial activity against Staphylococcus aureus USA300 assessed as inhibition of bacterial cell growth at 512 ug/ml after 24 hrs under anaerobic condition
Assay [12] relates to Staphylococcus aureus. The following applies: USA300, 1024 ug/ml.
Description: Antimicrobial activity against Staphylococcus aureus USA300 assessed as 2 log inhibition of bacterial cell growth at 1024 ug/ml after 2 days under anaerobic condition
Assay [13] has as its system Staphylococcus aureus. The following applies: USA300, 2048 ug/ml.
Description: Antimicrobial activity against Staphylococcus aureus USA300 assessed as 4 log inhibition of bacterial cell growth at 2048 ug/ml after 4 days under anaerobic condition
The subject of assay [14] is Burkholderia cepacia. Particulars: 128 ug/ml.
Description: Antimicrobial activity against Burkholderia cepacia isolated from cystic fibrosis patient assessed as inhibition of bacterial cell growth at 128 ug/ml after 48 hrs under anaerobic condition
The subject of assay [15] is Burkholderia cepacia. The assay can be described thus: microbe, parasite or virus in culture. The following applies: 24 h.
Description: Antimicrobial activity against Burkholderia cepacia isolated from cystic fibrosis patient after 24 hrs aerobic condition

The structures appear in SMILES notation. Activity calls are given as the source filed them. No cut-off for these calls is given here.

As to `O=N[O-].[Na+]` [SODIUM NITRITE], the MIC in the assay with Pseudomonas aeruginosa [1] amounted to 2050 µg/mL; against Staphylococcus aureus [2] it was 4100 µg/mL; against Pseudomonas aeruginosa [3] it was 128 µg/mL; with Pseudomonas aeruginosa [4], 512 µg/mL; with Staphylococcus aureus [5], 1020 µg/mL; against Pseudomonas aeruginosa [6], 1020 µg/mL. In the assay on Burkholderia cepacia [15], this compound returned an MIC of 512 µg/mL. For the same compound, the inhibition entry in the assay with Pseudomonas aeruginosa [7], with Pseudomonas aeruginosa [8], in the assay with Pseudomonas aeruginosa [9], in the assay on Pseudomonas aeruginosa [10], with Staphylococcus aureus [11] and in the assay with Staphylococcus aureus [12] was “Active” throughout. The inhibition entry with Staphylococcus aureus [13] and in the assay with Burkholderia cepacia [14] was “Active” in each case.
